Biological target: T1, MMP-13 (Homo sapiens, UniProt P45452)
T1 construct: 10 μL of a 50 nM stock solution of catalytic domain of MMP-13 enzyme; purchased Invitek (Berlin) 30100812
Assay: Assay for Determining MMP-13 Inhibition
Type: biochemical
Conditions: catalytic domain of MMP-13, fluorescent substrate
Procedure: The typical assay for MMP-13 activity is carried out in assay buffer comprised of 50 mM Tris, pH 7.5, 150 mM NaCl, 5 mM CaCl2 and 0.05% Brij-35. Different concentrations of tested compounds are prepared in assay buffer in 50 μL aliquots. 10 μL of a 50 nM stock solution of catalytic domain of MMP-13 enzyme (produced by Alantos or commercially available from Invitek (Berlin), Cat.# 30100812) is added to the compound solution. The mixture of enzyme and compound in assay buffer is thoroughly mixed and incubated for 10 min at room temperature. Upon the completion of incubation, the assay is started by addition of 40 μL of a 12.5 μM stock solution of MMP-13 fluorescent substrate (Calbiochem, Cat. No. 444235). The time-dependent increase in fluorescence is measured at the 320 nm excitation and 390 nm emission by automatic plate multireader. The IC50 values are calculated from the initial reaction rates.

IC50 [µM]	SMILES
< 0.5	Nc1c(N2CCc3ccc(CNC(=O)c4cnc5ccccc5n4)cc3C2)c(=O)c1=O [2/50]
< 0.5	Nc1c(N2CCc3ccc(CNC(=O)c4nc(O)nc5ccccc45)cc3C2)c(=O)c1=O [Example 1]

Source: patent US20080221094A1, “Metalloprotease inhibitors containing a squaramide moiety” (priority 2007, published 2008)
